Experiments:
[1] = target: Mitogen-activated protein kinase 1 (Homo sapiens) (UniProt P28482); assay: Percentage ERK2 activity remaining in the presence of 0.01uM inhibitor
[2] = target: Serine/threonine-protein kinase PLK1 (Homo sapiens, UniProt P53350); assay: Percentage PLK1 activity remaining in the presence of 25uM inhibitor
[3] = target: T1, Serine/threonine-protein kinase 3 (Homo sapiens) (UniProt Q13188); assay: Percentage MST2 activity remaining in the presence of 25uM inhibitor
T1 sequence (whole entry): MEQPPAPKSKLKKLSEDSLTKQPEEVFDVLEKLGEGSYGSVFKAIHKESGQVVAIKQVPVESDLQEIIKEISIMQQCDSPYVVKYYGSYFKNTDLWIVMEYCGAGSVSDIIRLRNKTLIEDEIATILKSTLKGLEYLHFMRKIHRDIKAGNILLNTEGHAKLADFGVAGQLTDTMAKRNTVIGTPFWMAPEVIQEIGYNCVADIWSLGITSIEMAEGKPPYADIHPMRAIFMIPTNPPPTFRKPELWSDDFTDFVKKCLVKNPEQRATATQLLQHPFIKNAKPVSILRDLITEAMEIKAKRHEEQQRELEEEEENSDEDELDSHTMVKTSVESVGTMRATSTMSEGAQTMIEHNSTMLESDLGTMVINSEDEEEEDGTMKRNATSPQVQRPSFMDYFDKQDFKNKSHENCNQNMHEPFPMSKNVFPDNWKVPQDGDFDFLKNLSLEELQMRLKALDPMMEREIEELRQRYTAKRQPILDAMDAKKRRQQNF

[4] = target: Ribosomal protein S6 kinase alpha-1 (Homo sapiens) (UniProt Q15418); assay: Percentage RSK1 activity remaining in the presence of 25uM inhibitor
Ribosomal protein S6 kinase alpha-1 (Homo sapiens), sequence (Q15418 whole entry): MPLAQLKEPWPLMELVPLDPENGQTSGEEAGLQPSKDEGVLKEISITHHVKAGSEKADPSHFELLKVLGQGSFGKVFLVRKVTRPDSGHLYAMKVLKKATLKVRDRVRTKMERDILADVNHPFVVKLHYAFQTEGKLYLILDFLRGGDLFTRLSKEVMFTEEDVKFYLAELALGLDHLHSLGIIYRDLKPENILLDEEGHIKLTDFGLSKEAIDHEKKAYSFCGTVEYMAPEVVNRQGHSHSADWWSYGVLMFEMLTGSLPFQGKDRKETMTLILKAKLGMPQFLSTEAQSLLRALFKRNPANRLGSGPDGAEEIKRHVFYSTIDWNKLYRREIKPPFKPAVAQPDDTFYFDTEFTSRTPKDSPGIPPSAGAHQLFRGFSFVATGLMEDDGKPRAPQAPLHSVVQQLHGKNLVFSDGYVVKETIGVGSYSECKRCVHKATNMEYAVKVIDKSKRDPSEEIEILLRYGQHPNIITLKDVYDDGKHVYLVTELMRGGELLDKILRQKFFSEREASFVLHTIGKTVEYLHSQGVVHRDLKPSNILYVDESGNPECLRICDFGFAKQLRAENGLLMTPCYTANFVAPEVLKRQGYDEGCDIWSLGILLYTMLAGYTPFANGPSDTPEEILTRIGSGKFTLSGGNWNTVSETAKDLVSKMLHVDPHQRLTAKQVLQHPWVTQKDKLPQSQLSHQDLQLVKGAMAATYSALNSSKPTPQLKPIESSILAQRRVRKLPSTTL

Aurora kinase B = Aurora kinase B (Homo sapiens, UniProt Q96GD4); assay: Percentage Aurora B activity remaining in the presence of 25uM inhibitor
Aurora kinase B, sequence (Q96GD4 whole entry): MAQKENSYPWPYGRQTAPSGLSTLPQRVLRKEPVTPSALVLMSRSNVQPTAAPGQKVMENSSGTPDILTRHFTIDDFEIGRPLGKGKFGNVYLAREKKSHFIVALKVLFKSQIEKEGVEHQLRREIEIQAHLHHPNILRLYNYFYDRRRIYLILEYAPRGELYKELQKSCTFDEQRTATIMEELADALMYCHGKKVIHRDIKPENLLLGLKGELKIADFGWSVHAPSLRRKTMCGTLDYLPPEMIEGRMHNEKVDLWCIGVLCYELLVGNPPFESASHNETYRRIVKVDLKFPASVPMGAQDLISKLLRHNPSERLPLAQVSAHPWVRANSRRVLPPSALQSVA

[5] = target: T2, Dual specificity tyrosine-phosphorylation-regulated kinase 2 (Homo sapiens) (UniProt Q92630); assay: Percentage DYRK2 activity remaining in the presence of 25uM inhibitor
T2 sequence (whole entry): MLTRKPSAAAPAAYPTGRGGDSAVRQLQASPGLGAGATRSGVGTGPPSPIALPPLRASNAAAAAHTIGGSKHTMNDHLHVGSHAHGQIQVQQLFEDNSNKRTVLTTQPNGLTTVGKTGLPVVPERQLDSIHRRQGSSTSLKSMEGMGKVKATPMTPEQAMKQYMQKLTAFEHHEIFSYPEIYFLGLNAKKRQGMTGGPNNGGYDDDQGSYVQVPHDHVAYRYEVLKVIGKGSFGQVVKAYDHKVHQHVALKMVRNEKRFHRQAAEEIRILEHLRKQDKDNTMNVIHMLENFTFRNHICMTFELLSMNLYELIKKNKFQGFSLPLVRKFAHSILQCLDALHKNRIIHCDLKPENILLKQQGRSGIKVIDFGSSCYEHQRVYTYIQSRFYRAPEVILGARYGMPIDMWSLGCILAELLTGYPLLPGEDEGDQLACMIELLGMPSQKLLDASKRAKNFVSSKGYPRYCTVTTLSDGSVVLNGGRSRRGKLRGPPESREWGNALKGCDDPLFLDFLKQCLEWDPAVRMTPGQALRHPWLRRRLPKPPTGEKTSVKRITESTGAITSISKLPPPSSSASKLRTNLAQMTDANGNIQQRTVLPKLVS

[6] = target: T3, Mitogen-activated protein kinase 13 (Homo sapiens) (UniProt O15264); assay: Percentage p38delta activity remaining in the presence of 25uM inhibitor
T3 sequence (whole entry): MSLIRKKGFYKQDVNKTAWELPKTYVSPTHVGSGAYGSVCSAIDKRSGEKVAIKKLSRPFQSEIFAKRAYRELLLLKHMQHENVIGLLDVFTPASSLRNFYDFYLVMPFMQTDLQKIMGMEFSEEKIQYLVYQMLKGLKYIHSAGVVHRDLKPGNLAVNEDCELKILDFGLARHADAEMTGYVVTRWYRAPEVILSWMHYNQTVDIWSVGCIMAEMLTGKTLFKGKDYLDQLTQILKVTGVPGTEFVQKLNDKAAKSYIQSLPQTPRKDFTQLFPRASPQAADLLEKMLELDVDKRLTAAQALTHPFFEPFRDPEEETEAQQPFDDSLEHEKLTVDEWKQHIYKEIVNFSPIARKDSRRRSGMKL

[7] = target: MAP kinase-interacting serine/threonine-protein kinase 2 (Homo sapiens) (UniProt Q9HBH9); assay: Percentage MNK2 activity remaining in the presence of 25uM inhibitor
MAP kinase-interacting serine/threonine-protein kinase 2 (Homo sapiens), sequence (Q9HBH9 whole entry, looked up): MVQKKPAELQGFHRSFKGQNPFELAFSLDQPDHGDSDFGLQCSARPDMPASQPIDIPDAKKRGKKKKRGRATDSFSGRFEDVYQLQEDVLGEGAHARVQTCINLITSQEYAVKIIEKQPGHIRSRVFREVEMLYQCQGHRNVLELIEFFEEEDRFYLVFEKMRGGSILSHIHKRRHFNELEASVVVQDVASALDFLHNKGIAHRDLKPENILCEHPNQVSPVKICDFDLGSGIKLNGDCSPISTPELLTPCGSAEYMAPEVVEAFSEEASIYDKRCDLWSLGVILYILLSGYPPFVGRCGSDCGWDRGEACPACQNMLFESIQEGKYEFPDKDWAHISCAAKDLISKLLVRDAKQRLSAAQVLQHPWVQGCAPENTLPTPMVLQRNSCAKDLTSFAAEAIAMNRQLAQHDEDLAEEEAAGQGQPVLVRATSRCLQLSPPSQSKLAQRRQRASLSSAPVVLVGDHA

[8] = target: Mitogen-activated protein kinase 11 (Homo sapiens) (UniProt Q15759); assay: Percentage p38beta activity remaining in the presence of 25uM inhibitor
Mitogen-activated protein kinase 11 (Homo sapiens), sequence (Q15759 whole entry): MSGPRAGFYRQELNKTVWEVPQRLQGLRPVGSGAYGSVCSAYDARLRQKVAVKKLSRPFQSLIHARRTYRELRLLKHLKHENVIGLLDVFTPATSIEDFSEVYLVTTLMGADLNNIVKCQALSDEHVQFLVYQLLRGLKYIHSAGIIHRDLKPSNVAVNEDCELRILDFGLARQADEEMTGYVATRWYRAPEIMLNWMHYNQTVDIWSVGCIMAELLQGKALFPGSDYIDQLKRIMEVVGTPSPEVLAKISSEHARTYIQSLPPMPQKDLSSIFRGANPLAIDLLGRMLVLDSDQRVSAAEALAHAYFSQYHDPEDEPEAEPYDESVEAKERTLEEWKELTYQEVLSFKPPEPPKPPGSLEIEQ

[9] = target: Serine/threonine-protein kinase Chk2 (Homo sapiens) (UniProt O96017); assay: Percentage CHK2 activity remaining in the presence of 25uM inhibitor
Serine/threonine-protein kinase Chk2 (Homo sapiens), sequence (O96017 whole entry): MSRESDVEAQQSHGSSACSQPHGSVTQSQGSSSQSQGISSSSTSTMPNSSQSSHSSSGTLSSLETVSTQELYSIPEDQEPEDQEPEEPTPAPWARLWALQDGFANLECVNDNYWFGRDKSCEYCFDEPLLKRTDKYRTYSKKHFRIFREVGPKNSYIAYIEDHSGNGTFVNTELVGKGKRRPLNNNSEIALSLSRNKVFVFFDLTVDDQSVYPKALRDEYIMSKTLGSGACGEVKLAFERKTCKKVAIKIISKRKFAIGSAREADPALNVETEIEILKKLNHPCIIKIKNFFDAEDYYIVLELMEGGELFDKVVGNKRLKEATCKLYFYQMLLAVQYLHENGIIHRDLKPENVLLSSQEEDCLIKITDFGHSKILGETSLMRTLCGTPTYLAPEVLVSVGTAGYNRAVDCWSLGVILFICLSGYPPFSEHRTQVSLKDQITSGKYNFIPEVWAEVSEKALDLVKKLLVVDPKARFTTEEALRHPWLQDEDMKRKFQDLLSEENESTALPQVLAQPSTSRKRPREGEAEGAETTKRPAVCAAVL

[10] = target: Maternal embryonic leucine zipper kinase (Homo sapiens) (UniProt Q14680); assay: Percentage MELK activity remaining in the presence of 25uM inhibitor
Maternal embryonic leucine zipper kinase (Homo sapiens), sequence (Q14680 whole entry, looked up): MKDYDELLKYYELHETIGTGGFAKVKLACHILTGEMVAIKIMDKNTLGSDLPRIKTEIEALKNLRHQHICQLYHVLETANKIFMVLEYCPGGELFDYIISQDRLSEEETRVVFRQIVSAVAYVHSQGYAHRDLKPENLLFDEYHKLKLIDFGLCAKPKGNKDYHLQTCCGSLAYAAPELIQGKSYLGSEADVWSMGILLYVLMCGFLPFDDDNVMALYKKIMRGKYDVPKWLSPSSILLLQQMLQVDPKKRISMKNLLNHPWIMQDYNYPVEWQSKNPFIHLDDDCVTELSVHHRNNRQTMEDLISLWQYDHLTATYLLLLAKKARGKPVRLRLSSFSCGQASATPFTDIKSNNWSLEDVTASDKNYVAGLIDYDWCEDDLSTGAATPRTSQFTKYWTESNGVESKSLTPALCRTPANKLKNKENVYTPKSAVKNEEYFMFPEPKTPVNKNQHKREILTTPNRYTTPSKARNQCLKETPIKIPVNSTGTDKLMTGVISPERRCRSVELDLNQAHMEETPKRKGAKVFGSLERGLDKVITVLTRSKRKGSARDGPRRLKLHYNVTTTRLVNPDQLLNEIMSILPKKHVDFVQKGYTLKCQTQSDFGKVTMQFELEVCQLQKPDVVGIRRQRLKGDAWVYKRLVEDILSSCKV

[11] = target: T4, Serine/threonine-protein kinase BRSK2 (Homo sapiens) (UniProt Q8IWQ3); assay: Percentage BRSK2 activity remaining in the presence of 25uM inhibitor
T4 sequence (whole entry): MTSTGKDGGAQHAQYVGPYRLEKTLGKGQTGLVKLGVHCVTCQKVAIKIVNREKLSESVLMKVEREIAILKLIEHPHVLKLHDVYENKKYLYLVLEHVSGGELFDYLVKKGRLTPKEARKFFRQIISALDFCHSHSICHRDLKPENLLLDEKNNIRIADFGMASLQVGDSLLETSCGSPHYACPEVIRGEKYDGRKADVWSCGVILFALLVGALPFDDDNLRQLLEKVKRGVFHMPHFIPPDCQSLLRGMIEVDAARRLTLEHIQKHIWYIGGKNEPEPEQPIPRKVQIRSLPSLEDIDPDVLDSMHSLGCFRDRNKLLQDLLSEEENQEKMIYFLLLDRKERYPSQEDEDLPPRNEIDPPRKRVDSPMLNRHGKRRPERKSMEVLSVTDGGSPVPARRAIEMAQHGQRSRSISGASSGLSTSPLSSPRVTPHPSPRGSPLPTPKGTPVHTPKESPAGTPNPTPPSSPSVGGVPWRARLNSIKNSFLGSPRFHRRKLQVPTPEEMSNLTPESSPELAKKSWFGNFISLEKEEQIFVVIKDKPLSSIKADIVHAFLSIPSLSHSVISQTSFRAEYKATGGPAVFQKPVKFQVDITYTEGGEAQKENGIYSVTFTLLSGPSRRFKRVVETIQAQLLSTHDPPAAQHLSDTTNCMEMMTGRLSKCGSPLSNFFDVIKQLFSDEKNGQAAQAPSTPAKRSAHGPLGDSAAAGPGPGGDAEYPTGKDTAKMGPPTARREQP

[12] = target: Serine/threonine-protein kinase PAK 6 (Homo sapiens) (UniProt Q9NQU5); assay: Percentage PAK6 activity remaining in the presence of 25uM inhibitor
Serine/threonine-protein kinase PAK 6 (Homo sapiens), sequence (Q9NQU5 whole entry, looked up): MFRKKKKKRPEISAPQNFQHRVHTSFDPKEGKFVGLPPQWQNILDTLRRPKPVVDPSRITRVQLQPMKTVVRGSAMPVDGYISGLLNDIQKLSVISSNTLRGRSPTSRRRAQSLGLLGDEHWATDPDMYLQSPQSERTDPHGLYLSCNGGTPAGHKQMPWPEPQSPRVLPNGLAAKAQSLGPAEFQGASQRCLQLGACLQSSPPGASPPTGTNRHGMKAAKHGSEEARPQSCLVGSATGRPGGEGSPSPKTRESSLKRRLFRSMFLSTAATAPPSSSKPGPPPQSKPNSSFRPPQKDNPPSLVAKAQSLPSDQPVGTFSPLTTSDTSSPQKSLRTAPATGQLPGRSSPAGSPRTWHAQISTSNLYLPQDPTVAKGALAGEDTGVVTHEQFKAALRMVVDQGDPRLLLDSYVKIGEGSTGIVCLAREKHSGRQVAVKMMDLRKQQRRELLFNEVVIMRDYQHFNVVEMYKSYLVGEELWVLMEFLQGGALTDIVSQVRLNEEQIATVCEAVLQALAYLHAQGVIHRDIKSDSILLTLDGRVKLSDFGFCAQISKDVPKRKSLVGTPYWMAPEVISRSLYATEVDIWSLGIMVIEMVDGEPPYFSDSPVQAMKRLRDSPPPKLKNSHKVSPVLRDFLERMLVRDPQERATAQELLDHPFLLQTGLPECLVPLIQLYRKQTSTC

[13] = target: Dual specificity tyrosine-phosphorylation-regulated kinase 1A (Homo sapiens) (UniProt Q13627); assay: Percentage DYRK1A activity remaining in the presence of 25uM inhibitor

Serine/threonine-protein kinase PLK1, sequence (P53350 whole entry): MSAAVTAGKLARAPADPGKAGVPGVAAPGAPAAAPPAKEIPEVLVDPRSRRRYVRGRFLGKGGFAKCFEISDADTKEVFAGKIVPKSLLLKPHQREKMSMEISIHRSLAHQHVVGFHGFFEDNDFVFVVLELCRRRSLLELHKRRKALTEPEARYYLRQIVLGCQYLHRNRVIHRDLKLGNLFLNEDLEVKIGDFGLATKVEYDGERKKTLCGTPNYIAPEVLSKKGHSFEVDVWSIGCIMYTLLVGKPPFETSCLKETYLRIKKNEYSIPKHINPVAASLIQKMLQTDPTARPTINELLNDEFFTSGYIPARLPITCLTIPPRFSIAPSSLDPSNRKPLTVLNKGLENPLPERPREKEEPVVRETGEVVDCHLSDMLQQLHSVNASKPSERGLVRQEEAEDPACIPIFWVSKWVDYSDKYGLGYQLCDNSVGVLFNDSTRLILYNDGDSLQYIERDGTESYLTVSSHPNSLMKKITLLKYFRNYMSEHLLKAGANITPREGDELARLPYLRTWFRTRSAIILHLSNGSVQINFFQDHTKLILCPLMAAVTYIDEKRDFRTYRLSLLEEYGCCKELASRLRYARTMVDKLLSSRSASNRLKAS
Mitogen-activated protein kinase 1 (Homo sapiens), sequence (P28482 whole entry): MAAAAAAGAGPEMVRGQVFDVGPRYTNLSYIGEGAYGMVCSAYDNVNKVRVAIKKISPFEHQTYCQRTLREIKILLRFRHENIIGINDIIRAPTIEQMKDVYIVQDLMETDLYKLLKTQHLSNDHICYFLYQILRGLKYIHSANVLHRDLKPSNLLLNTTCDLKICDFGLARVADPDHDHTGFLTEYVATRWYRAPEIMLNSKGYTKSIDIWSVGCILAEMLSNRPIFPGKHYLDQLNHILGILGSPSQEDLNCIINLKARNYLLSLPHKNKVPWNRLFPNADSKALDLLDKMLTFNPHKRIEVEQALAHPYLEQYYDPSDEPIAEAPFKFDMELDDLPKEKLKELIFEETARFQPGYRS

SMILES: O=C(NCCCNc1nc(Nc2cccc(NC(=O)N3CCCC3)c2)ncc1I)c1cccs1
- Activity [1]: 88%

SMILES: COc1cc(OC)c(/C=C2/C(=O)Nc3ccccc32)c(OC)c1
- Activity [2]: 95%
- Activity [3]: 70%
- Activity [4]: 87%
- Activity (Aurora kinase B): 75%
- Activity [5]: 99%
- Activity [6]: 91%
- Activity [7]: 97%
- Activity [8]: 97%
- Activity [9]: 76%
- Activity [10]: 75%
- Activity [11]: 88%
- Activity [12]: 76%
- Activity [13]: 73%

SMILES: Cc1n[nH]c2ccc(-c3cncc(OC[C@@H](N)Cc4c[nH]c5ccccc45)c3)cc12
- Activity [1]: 78%

SMILES: NCCNS(=O)(=O)c1ccc(Cl)c2ccncc12
- Activity [2]: 81%
- Activity [3]: 91%
- Activity ([4]; filed as antagonist): 48%
- Activity (Aurora kinase B): 78%
- Activity [5]: 76%
- Activity [6]: 80%
- Activity [7]: 76%
- Activity [8]: 101%
- Activity [9]: 64%
- Activity [10]: 63%
- Activity ([11]; filed as antagonist): 42%
- Activity [12]: 78%
- Activity ([13]; filed as antagonist): 39%

Source: ChEMBL document CHEMBL1150976, “The selectivity of protein kinase inhibitors: a further update” (Biochem J, 2007)
